Literature values as cited in patent US20130203688A1, “SUGAR PLANT DERIVED BY-PRODUCTS AND METHODS OF PRODUCTION THEREOF” (FÉDÉRATION DES PRODUCTEURS ACÉRI-COLES DU QUÉBEC, priority 2010, published 2013).
One block for each compound: values may come before it.

Properties: tyrosinase inhibitory (tyrosinase): tyrosinase inhibitory
Compound: COc1cc(C2c3c(cc(OC)c(O)c3OC)CC(CO)C2CO)cc(OC)c1O (centres unmarked) [compound 8, Lyoniresinol]

Compound: COc1cc(C2Oc3c(OC)cc(CCCO)cc3C2CO)ccc1O (centres unmarked) [compound 15]
Properties: antitumor (tumor): Antitumor/

Properties: α-glucosidase-inhibiting action (α-glucosidase): α- glucosidase- inhibiting
Compound: COc1ccc(C2OC(=O)C(O)(Cc3ccc(OC4OC(C)C(O)C(O)C4O)c(OC)c3)C2CO)cc1OC (centres unmarked) [compound 7]
Properties: human HL-60 proliferation-inhibiting action (human HL-60): human HL-60 proliferation- inhibiting

Compound: Oc1ccccc1O [compound 11, 1,2-Benzenediol(catechol)]
Properties: antibacterial (bacteria): Antibacterial
Properties: tyrosinase inhibitory (tyrosinase): inhibit the activity of tyrosinase
Properties: inhibit the synthesis of melanin (synthesis of melanin): inhibit the synthesis of melanin

Compound: COc1cc(/C=C/CO)cc(OC)c1O [compound 10, Syringenin]
Properties: TNFα-secretion inhibitor (TNFα secretion): TNFα- secretion inhibitor
